Earlier results as cited in US20060234982A1 (priority 2003, published 2006).

Columns and labels:
HIV-1 = conditions: in vitro, with recombinant soluble CD4, castanospermine or recombinant interferon-α
HBV = conditions: variety of cell types
[1] = not given; remark: listed apart in the source
[2] = relative to tenofovir, HIV in culture

**Q.** For `Cc1cn([C@H]2C[C@H](N=[N+]=[N-])[C@@H](CO)O2)c(=O)[nH]c1=O` [AZT, 3′-azido, 3′-deoxythymidine], which “antiviral activity in combination” value (HIV-1) is on record?
**A.** synergistic antiviral activity

**Q.** With `CC(C)OC(=O)[C@H](C)N[P@](=O)(CO[C@H](C)Cn1cnc2c(N)ncnc21)Oc1ccccc1` [GS-7340, 9-[(R)-2-[[(S)-[[(S)-1-(isopropoxycarbonyl)ethyl]amino]phenoxyphosphinyl]methoxy]propyl]adenine] as the compound, how does the “hydrolysis in lymphatic tissue” value (dogs and rhesus monkeys) read?
**A.** selectively hydrolyzed inside lymphatic tissue

**Q.** And the plasma stability (dogs and rhesus monkeys)?
**A.** stable in plasma

**Q.** And the oral bioavailability (dogs and rhesus monkeys, oral)?
**A.** 20%

**Q.** What about the tissue distribution (in vivo and in vitro characterization, selective intracellular activation) of the same compound?
**A.** preferential distribution in lymphatic tissues

**Q.** What about the “effectiveness against HBV in vitro” value (HBV) of the same compound?
**A.** effective

**Q.** What about the “fold more effective than tenofovir against HIV in culture” value (HIV; [2]) of the same compound?
**A.** 100 fold

**Q.** And the “times more effective than tenofovir against HIV in culture” value (HIV; [2])?
**A.** 1000 times

**Q.** And the “S-configuration (at phosphorus) diastereomer more effective than R-configuration diastereomer” value (HIV; relative to the diastereomer with R-configuration at P)?
**A.** 10 fold

**Q.** What about the “effectiveness against HIV in vitro” value (HIV; variety of cell types) of the same compound?
**A.** effective

**Q.** For `C[C@H](Cn1cnc2c(N)ncnc21)OCP(=O)(O)O` [Tenofovir, (R)-9-(2-phosphonylmethoxypropyl)adenine], which pKa [1] is on record?
**A.** 3.8
